From ChEMBL document CHEMBL3616440, “Non-basic azolotriazinone MCHR1 antagonists for the treatment of obesity: An empirical brain-exposures-driven candidate selection for in vivo efficacy studies” (Bioorg Med Chem Lett, 2015)
Blank lines part the entries; values can stand above or below the compound they belong to.

Tests used:
Brain [1] = test: Drug concentration in Sprague-Dawley rat brain assessed as 6-(4-chlorophenyl)-3-(6-(4-hydroxypiperidin-1-yl)pyridin-3-yl)pyrrolo[1,2-f][1,2,4]triazin-4(3H)-one level at 3 mg/kg, po qd at 20 hrs; format: ADME, organism-based; details: in vivo, read-out: Drug uptake
Brain [2] = test: Drug concentration in Sprague-Dawley rat brain assessed as 6-(4-chlorophenyl)-3-(6-(4-hydroxypiperidin-1-yl)pyridin-3-yl)pyrrolo[1,2-f][1,2,4]triazin-4(3H)-one level at 10 mg/kg, po qd at 20 hrs; format: ADME, organism-based; details: in vivo, read-out: Drug uptake
Brain [3] = test: Drug concentration in Sprague-Dawley rat brain assessed as 6-(4-chlorophenyl)-3-(6-(4-hydroxypiperidin-1-yl)pyridin-3-yl)pyrrolo[1,2-f][1,2,4]triazin-4(3H)-one level at 30 mg/kg, po qd at 20 hrs; format: ADME, organism-based; details: in vivo, read-out: Drug uptake
Brain [4] = test: Free drug level in Sprague-Dawley rat brain assessed as 6-(4-chlorophenyl)-3-(6-(4-hydroxypiperidin-1-yl)pyridin-3-yl)pyrrolo[1,2-f][1,2,4]triazin-4(3H)-one level at 3 mg/kg, po qd at 20 hrs; format: ADME, organism-based; details: in vivo
Brain [5] = test: Free drug level in Sprague-Dawley rat brain assessed as 6-(4-chlorophenyl)-3-(6-(4-hydroxypiperidin-1-yl)pyridin-3-yl)pyrrolo[1,2-f][1,2,4]triazin-4(3H)-one level at 10 mg/kg, po qd at 20 hrs; format: ADME, organism-based; details: in vivo
Brain [6] = test: Free drug level in Sprague-Dawley rat brain assessed as 6-(4-chlorophenyl)-3-(6-(4-hydroxypiperidin-1-yl)pyridin-3-yl)pyrrolo[1,2-f][1,2,4]triazin-4(3H)-one level at 30 mg/kg, po qd at 20 hrs; format: ADME, organism-based; details: in vivo
Rattus norvegicus [7] = test: Antiobesity activity in Sprague-Dawley rat assessed as body weight reduction at 3 mg/kg, po qd after 4 days relative to control; format: functional; details: 96 h
Rattus norvegicus [8] = test: Antiobesity activity in Sprague-Dawley rat assessed as body weight reduction at 10 mg/kg, po qd after 4 days relative to control; format: functional; details: 96 h
Rattus norvegicus [9] = test: Antiobesity activity in Sprague-Dawley rat assessed as body weight reduction at 30 mg/kg, po qd after 4 days relative to control; format: functional; details: 96 h
[10] = Ratio of free drug level in brain of Sprague-Dawley rat assessed as 6-(4-chlorophenyl)-3-(6-(4-hydroxypiperidin-1-yl)pyridin-3-yl)pyrrolo[1,2-f][1,2,4]triazin-4(3H)-one level at 3 mg/kg, po to Ki for rat MCHR1; format: ADME, organism-based; details: in vivo
[11] = Ratio of free drug level in brain of Sprague-Dawley rat assessed as 6-(4-chlorophenyl)-3-(6-(4-hydroxypiperidin-1-yl)pyridin-3-yl)pyrrolo[1,2-f][1,2,4]triazin-4(3H)-one level at 10 mg/kg, po to Ki for rat MCHR1; format: ADME, organism-based; details: in vivo
[12] = Ratio of free drug level in brain of Sprague-Dawley rat assessed as 6-(4-chlorophenyl)-3-(6-(4-hydroxypiperidin-1-yl)pyridin-3-yl)pyrrolo[1,2-f][1,2,4]triazin-4(3H)-one level at 30 mg/kg, po to Ki for rat MCHR1; format: ADME, organism-based; details: in vivo
Plasma [13] = test: Fraction unbound in Sprague-Dawley rat plasma assessed as 6-(4-chlorophenyl)-3-(6-(4-hydroxypiperidin-1-yl)pyridin-3-yl)pyrrolo[1,2-f][1,2,4]triazin-4(3H)-one level; format: ADME, cell-free
Brain [14] = test: Drug concentration in Sprague-Dawley rat brain assessed as 6-(4-chlorophenyl)-3-(4-(2-hydroxy-2-methylpropoxy)-3-methoxyphenyl)thieno[3,2-d]pyrimidin-4(3H)-one level at 10 mg/kg, po qd at 20 hrs; format: ADME, organism-based; details: in vivo, read-out: Drug uptake
[15] = target: Melanin-concentrating hormone receptor 1 (Homo sapiens, UniProt Q99705); test: Antagonist activity at human MCHR1 expressed in HEK293 cells assessed as inhibition of MCH-induced Ca2+ influx for 120 mins by FLIPR assay; format: functional, cell-based
Sequence of Melanin-concentrating hormone receptor 1 (Homo sapiens, UniProt Q99705) (Q99705 whole entry): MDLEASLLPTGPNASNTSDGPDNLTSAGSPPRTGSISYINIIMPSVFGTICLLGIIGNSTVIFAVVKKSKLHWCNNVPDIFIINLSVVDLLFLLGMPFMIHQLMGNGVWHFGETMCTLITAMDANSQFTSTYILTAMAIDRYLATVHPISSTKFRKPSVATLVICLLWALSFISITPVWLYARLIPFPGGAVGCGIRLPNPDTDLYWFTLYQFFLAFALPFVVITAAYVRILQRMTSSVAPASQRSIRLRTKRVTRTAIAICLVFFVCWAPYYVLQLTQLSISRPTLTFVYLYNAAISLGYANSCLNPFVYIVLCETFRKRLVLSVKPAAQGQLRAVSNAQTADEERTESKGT

Rattus norvegicus [16] = test: Toxicity in oral-dosed Sprague-Dawley rat assessed as biliary lesion after 30 days; format: organism-based; details: in vivo, 720 h
[17] = target: Melanin-concentrating hormone receptor 1 (Rattus norvegicus, UniProt P97639); test: Displacement of [125I][Phe13,Tyr19]-MCH from rat MCHR1 by scintillation counting analysis
Sequence of Melanin-concentrating hormone receptor 1 (Rattus norvegicus, UniProt P97639) (P97639 whole entry): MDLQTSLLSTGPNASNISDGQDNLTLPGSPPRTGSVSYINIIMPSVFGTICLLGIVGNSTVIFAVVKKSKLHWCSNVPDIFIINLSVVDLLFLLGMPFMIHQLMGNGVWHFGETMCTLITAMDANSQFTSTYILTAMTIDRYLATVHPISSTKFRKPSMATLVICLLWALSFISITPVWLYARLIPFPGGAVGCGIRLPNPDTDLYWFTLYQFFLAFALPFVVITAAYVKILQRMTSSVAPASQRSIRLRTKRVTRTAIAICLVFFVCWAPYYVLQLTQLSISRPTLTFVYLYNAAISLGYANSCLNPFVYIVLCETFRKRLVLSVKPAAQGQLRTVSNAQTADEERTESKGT

[18] = target: Melanin-concentrating hormone receptor 1 (Rattus norvegicus) (UniProt P97639); details: 10 uM
Sequence of Melanin-concentrating hormone receptor 1 (Rattus norvegicus) (P97639 whole entry): as above
Description: Displacement of [125I][Phe13,Tyr19]-MCH from rat MCHR1 at 10 uM by scintillation counting analysis

Brain [19] = test: Free drug level in Sprague-Dawley rat brain assessed as 6-(4-chlorophenyl)-3-(4-(2-hydroxy-2-methylpropoxy)-3-methoxyphenyl)thieno[3,2-d]pyrimidin-4(3H)-one level at 10 mg/kg, po qd at 20 hrs; format: ADME, organism-based; details: in vivo
Rattus norvegicus [20] = test: Prodrug conversion in oral-dosed Sprague-Dawley rat assessed as 6-(4-chlorophenyl)-3-(4-(2,3-dihydroxy-2-methylpropoxy)-3-methoxyphenyl)thieno[3,2-d]pyrimidin-4(3H)-one formation; format: ADME, organism-based; details: in vivo
Rattus norvegicus [21] = test: Prodrug conversion in oral-dosed Sprague-Dawley rat assessed as 3-(4-(6-(4-chlorophenyl)-4-oxothieno[3,2-d]pyrimidin-3(4H)-yl)-2-methoxyphenoxy)-2-hydroxy-2-methylpropanoic acid formation; format: ADME, organism-based; details: in vivo
[22] = Ratio of free drug level in brain of Sprague-Dawley rat assessed as 6-(4-chlorophenyl)-3-(4-(2-hydroxy-2-methylpropoxy)-3-methoxyphenyl)thieno[3,2-d]pyrimidin-4(3H)-one level at 10 mg/kg, po to Ki for rat MCHR1; format: ADME, organism-based; details: in vivo
Plasma [23] = test: Fraction unbound in Sprague-Dawley rat plasma assessed as 6-(4-chlorophenyl)-3-(4-(2-hydroxy-2-methylpropoxy)-3-methoxyphenyl)thieno[3,2-d]pyrimidin-4(3H)-one level; format: ADME, cell-free

concentration (Brain [1]): 1.97 µM | concentration (Brain [2]): 10.1 µM | concentration (Brain [3]): 15.1 µM | Drug uptake(free) (Brain [4]): < 3.9 nM | Drug uptake(free) (Brain [5]): < 20 nM | Drug uptake(free) (Brain [6]): < 30 nM | Ratio [10]: < 0.2 | Ratio [11]: < 1.1 | Ratio [12]: < 1.7 | Fu (Plasma [13]): < 0.2%
SMILES: CC(C)[C@H](N)C(=O)OC1CCN(c2ccc(-n3cnn4cc(-c5ccc(Cl)cc5)cc4c3=O)cn2)CC1
inhibition in vivo at 3 mg/kg (Rattus norvegicus [7]): 1.3% | inhibition in vivo at 10 mg/kg (Rattus norvegicus [8]): 1.3% | inhibition in vivo at 30 mg/kg (Rattus norvegicus [9]): 2.6%

SMILES: COc1cc(-n2cnc3cc(-c4ccc(Cl)cc4)sc3c2=O)ccc1OCC(C)(C)O
concentration (Brain [14]): 1.61 µM | IC50 [15]: 0.016 µM | Activity (Rattus norvegicus [16]): Toxic | Ki [17]: 0.0072 µM | inhibition [18]: > 90%

Drug uptake(free) (Brain [19]): 11.3 nM | Drug metabolism (Rattus norvegicus [20]): metabolite_detected | Drug metabolism (Rattus norvegicus [21]): metabolite_detected | Ratio [22]: 1.6 | Fu (Plasma [23]): 0.7%
SMILES: COc1cc(-n2cnc3cc(-c4ccc(Cl)cc4)sc3c2=O)ccc1OCC(C)(C)OC(=O)CN
inhibition in vivo at 10 mg/kg (Rattus norvegicus [8]): 6.9%
